# Laboratory results taken from patent EP0219616A1, “N,N'-dimethyl-N,N'-4,10-dioxa-3,11-dioxo-1,13-tridecylene-bis-tetrahydropapaverinium dichloride” (S O "PHARMACHIM", priority 1985, dated 1987).
# Where two headings read alike, the source gives them in different places.
# Key:
# [1] = Comparative stability in aqueous acidic medium, content by HPLC; type: physicochemical
# Method: […] Die Prüfung wurde bei unterschiedlichen pH-Werten in dem angegebenen Intervall durch Behandlung der wässrigen Lösungen des Dichlormethylats der Formel I und des Bezylats bei einer Temperatur von 53°C während 40 Stunden durchgeführt.
# Chromatografische Bedingungen: Säule mit umgekehrter Phase C18, bewegliche Phase: wässrige 0,1 M Kaliumhydrogenphosphat, enthaltend Natriumoktylhydrogensulfat (1 g/I) und Azetonitril in einem Verhältnis 1:1. Durchlaßgeschwindigkeit 1,5 ml/Min.
# Es werden je 7 Proben einer 0,5%-igen wässrigen Lösung des Dichlorids I und des Dibezylats mit bestimmten pH-Werten zubereitet, was durch Zufügen von Ortophospharsäure ereicht wird. Die Proben verweilen 40 Stunden bei einer Temperatur von 53°C. Danach wird der Prozentgehalt an Dichlorid und Dibezylat in den Proben gemessen.
# [2] = pH 2,5; literature reference (4); cited from earlier work
# Neuromuskel-Übertragung = assay: Sciatic nerve-gastrocnemius preparation in cats: muscle contraction on nerve stimulation (neuromuscular block); type: in vivo, Katzen; conditions: for Eintreten der Neuro-muskel-Blockierung / Wiederherstellung der Neuromuskel-Übertragung: dose 0,2 mg/kg
# Source text: Die Versuche wurden an Katzen unter Einführen von gleichen Dosen des Originalpräparats "Tracrium" und der Verbindung der Formel I. Es wurde das klassische Verfahren "I-schiadiensgastrocnemicus" benutzt. Es wurde eine Kontraktion des Muskels Gastrocnemicus zufolge einer Reizung des Hüftnervs (Ischiasnervs) registriert. Die Ergebnisse sind in Tabelle II dargestellt.
# [3] = Solubility compared with known salts (no method given); type: physicochemical
smiles,measurement,setting,value
"COc1ccc(CC2c3cc(OC)c(OC)cc3CC[N+]2(C)CCC(=O)OCCCCCOC(=O)CC[N+]2(C)CCc3cc(OC)c(OC)cc3C2Cc2ccc(OC)c(OC)c2)cc1OC (stereo not shown) [Dibezylat, Dibesylat des N,N-4,10-Dioxa-3,11-Dioxotridezylen-1,13-bis-tetrahydropapaverins, reference compound]",remaining at 40 h,"[1]; acidic aqueous solution, pH 3, at pH 3,50, 53°C, read-out: Prozentgehalt, Maximum",73.8%
same,remaining at 40 h,"[1]; aqueous solution, phosphoric acid, pH 1, pH 1,76, 0,5% aqueous solution, 53°C, read-out: Prozent-gehalt",60.6%
same,remaining at 40 h,"[1]; aqueous solution, phosphoric acid, pH 2, pH 2,88, 0,5% aqueous solution, 53°C, read-out: Prozent-gehalt",72.9%
same,remaining at 40 h,"[1]; aqueous solution, phosphoric acid, pH 3, pH 3,16, 0,5% aqueous solution, 53°C, read-out: Prozent-gehalt",73.5%
same,remaining at 40 h,"[1]; aqueous solution, phosphoric acid, pH 3, pH 3,50, 0,5% aqueous solution, 53°C, read-out: Prozent-gehalt",73.8%
same,remaining at 40 h,"[1]; aqueous solution, phosphoric acid, pH 3, pH 3,71, 0,5% aqueous solution, 53°C, read-out: Prozent-gehalt",72.2%
same,remaining at 40 h,"[1]; aqueous solution, phosphoric acid, pH 4, pH 4,09, 0,5% aqueous solution, 53°C, read-out: Prozent-gehalt",68.8%
same,Prozentgehalt niedriger im Vergleich zur Verbindung der Formel I,"[1]; pH interval 2,46 bis 3,77, 53°C, 40 h",~20%
same,Prozentgehalt des Bezylats bei maximaler Stabilität,[2],76%
"COc1ccc(CC2c3cc(OC)c(OC)cc3CC[N+]2(C)CCC(=O)OCCCCCOC(=O)CC[N+]2(C)CCc3cc(OC)c(OC)cc3C2Cc2ccc(OC)c(OC)c2)cc1OC (stereo not shown) [Tracrium, Dibesylat des N,N-4,10-Dioxa-3,11-Dioxotridezylen-1,13-bis-tetrahydropapaverins, reference compound]",Eintreten der Neuro-muskel-Blockierung,Neuromuskel-Übertragung; cats,"60,4 Sek."
same,Wiederherstellung der Neuromuskel-Übertragung,Neuromuskel-Übertragung; cats,"34,6 Min."
"COc1ccc(CC2c3cc(OC)c(OC)cc3CC[N+]2(C)CCC(=O)OCCCCCOC(=O)CC[N+]2(C)CCc3cc(OC)c(OC)cc3C2Cc2ccc(OC)c(OC)c2)cc1OC (stereo not shown) [Dichlormethylat der Formel I, N,N-Dimethyl-N,N-4,10-dioxa-3,11-dioxotridezylen-1,13-tetrachydropapaverinoil-dichlorid]",remaining at 40 h,"[1]; acidic aqueous solution, pH 3, at pH 3,0 -3,27, 53°C, read-out: Prozentgehalt, Maximum",91.9%
same,remaining at 40 h,"[1]; acidic aqueous solution, pH interval 2,46 bis 3,77, 53°C, read-out: Prozentgehalt",86 to 91.9%
same,Stabilität im Vergleich zum Bezylat,"[1]; aqueous acidic medium, pH 1,7 bis 4,0, 53°C, 40 h",wesentlich stabiler
same,remaining at 40 h,"[1]; aqueous solution, phosphoric acid, pH 2, pH 2,46, 0,5% aqueous solution, 53°C, read-out: Prozent-gehalt",88.1%
same,remaining at 40 h,"[1]; aqueous solution, phosphoric acid, pH 2, pH 2,75, 0,5% aqueous solution, 53°C, read-out: Prozent-gehalt",89.5%
same,remaining at 40 h,"[1]; aqueous solution, phosphoric acid, pH 3, pH 3,04, 0,5% aqueous solution, 53°C, read-out: Prozent-gehalt",91.9%
same,remaining at 40 h,"[1]; aqueous solution, phosphoric acid, pH 3, pH 3,27, 0,5% aqueous solution, 53°C, read-out: Prozent-gehalt",91.4%
same,remaining at 40 h,"[1]; aqueous solution, phosphoric acid, pH 3, pH 3,58, 0,5% aqueous solution, 53°C, read-out: Prozent-gehalt",87.6%
same,Prozent-gehalt,"[1]; pH 4,09, 0,5% aqueous solution, 53°C, 40 h, listed as Dichlor-methyl der Formel I, 2400 min","70,4%"
same,Löslichkeit im Vergleich zu dem bekannten Dijodid und den anderen Salzen derselben Gruppe,[3],bessere Löslichkeit
same,Eintreten der Neuro-muskel-Blockierung,Neuromuskel-Übertragung; cats,"60,3 Sek."
same,Wiederherstellung der Neuromuskel-Übertragung,Neuromuskel-Übertragung; cats,"29,8 Min."
same,"Eintreten, Wiederherstellung und Dauer des Effekts der Neuromuskelübertragung im Vergleich zu ""Tracrium""","Neuromuskel-Übertragung; cats, equal doses",keinen statistisch wesentlichen Unterschied
same,biologischer Effekt bei den pharmakologischen Prüfungen,Neuromuskel-Übertragung; same effect with smaller quantity of active substance,verbesserten biologischen Effekt
